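Five concentrations, 48 hours, 96-well plates. The concentration for 50% growth inhibition is given as GI50.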 Activity calls are given as the source filed them. Rule as the data show it: active = GI50 up to about 1.1 µM and inactive = higher.
How the values were obtained:
Assay in all cases: NCI-60 cell line screen, 48 h
Hs-578T = test system: Hs-578T
HCT-15 = test system: HCT-15
MDA-MB-435 = test system: MDA-MB-435
MDA-MB-231 = test system: MDA-MB-231
786-0 = test system: 786-0
T47D = test system: T47D
U-251 = test system: U-251
SF-295 = test system: SF-295
CCRF-CEM = test system: CCRF-CEM
DU-145 = test system: DU-145
HT-29 = test system: HT-29
COLO 205 = test system: COLO 205
A498 = test system: A498
Malme-3M = test system: Malme-3M
SNB-19 = test system: SNB-19
SF-539 = test system: SF-539
UACC-62 = test system: UACC-62
NCI-H226 = test system: NCI-H226
OVCAR-5 = test system: OVCAR-5
SNB-75 = test system: SNB-75

Q: For CC(C)[Si]1(C(C)C)OCC2OC(n3ccc(=O)[nH]c3=O)C(O)(CO)C2O[Si](C(C)C)(C(C)C)O1 (configuration not stated), which GI50 (Hs-578T) is on record?
A: 3.31 µM (inactive)

Q: What about the GI50 (HCT-15) of the same molecule?
A: 18.4 µM

Q: What about the GI50 (MDA-MB-435) of the same molecule?
A: 17 µM (inactive)

Q: And the GI50 (MDA-MB-231)?
A: 13.6 µM (inactive)

Q: And the GI50 (786-0)?
A: 15.3 µM (inactive)

Q: And the GI50 (T47D)?
A: 15.1 µM (inactive)

Q: What about the GI50 (U-251) of the same molecule?
A: 15.1 µM (inactive)

Q: What about the GI50 (SF-295) of the same molecule?
A: 15 µM (inactive)

Q: What about the GI50 (CCRF-CEM) of the same molecule?
A: 12.4 µM (inactive)

Q: And the GI50 (DU-145)?
A: 18.3 µM (inactive)

Q: And the GI50 (HT-29)?
A: 15 µM (inactive)

Q: What about the GI50 (COLO 205) of the same molecule?
A: 17.6 µM (inactive)

Q: What about the GI50 (A498) of the same molecule?
A: 20.7 µM (inactive)

Q: And the GI50 (Malme-3M)?
A: 15 µM (inactive)

Q: And the GI50 (SNB-19)?
A: 15.3 µM (inactive)

Q: What about the GI50 (SF-539) of the same molecule?
A: 17.7 µM (inactive)

Q: And the GI50 (UACC-62)?
A: 15.8 µM (inactive)

Q: What about the GI50 (NCI-H226) of the same molecule?
A: 21.2 µM (inactive)

Q: And the GI50 (OVCAR-5)?
A: 15.9 µM (inactive)

Q: How did the GI50 (Hs-578T) turn out when CC(C)C1=CC2=C(C(=O)C1=O)C13CCCC(C)(C)C1CC2OC3=O (configuration not stated) was run?
A: 34.4 µM (inactive)

Q: What about the GI50 (HCT-15) of the same molecule?
A: 12.8 µM

Q: What about the GI50 (MDA-MB-435) of the same molecule?
A: 20.8 µM (inactive)

Q: And the GI50 (MDA-MB-231)?
A: 21.9 µM (inactive)

Q: And the GI50 (786-0)?
A: 17.9 µM (inactive)

Q: And the GI50 (T47D)?
A: 20.4 µM (inactive)

Q: And the GI50 (U-251)?
A: 23 µM (inactive)

Q: What about the GI50 (SF-295) of the same molecule?
A: 37 µM (inactive)

Q: And the GI50 (SNB-75)?
A: 25.7 µM (inactive)

Q: And the GI50 (CCRF-CEM)?
A: 3.97 µM (inactive)

Q: And the GI50 (DU-145)?
A: 18.8 µM (inactive)

Q: What about the GI50 (HT-29) of the same molecule?
A: 12.5 µM (inactive)

Q: What about the GI50 (COLO 205) of the same molecule?
A: 17.2 µM (inactive)

Q: What about the GI50 (A498) of the same molecule?
A: 27.2 µM (inactive)

Q: What about the GI50 (SNB-19) of the same molecule?
A: 42.9 µM (inactive)

Q: What about the GI50 (SF-539) of the same molecule?
A: 20.7 µM (inactive)

Q: What about the GI50 (UACC-62) of the same molecule?
A: 13.4 µM (inactive)

Q: What about the GI50 (NCI-H226) of the same molecule?
A: 18.6 µM (inactive)

Q: And the GI50 (OVCAR-5)?
A: 25.4 µM (inactive)

Q: How did the GI50 (Hs-578T) turn out when O=c1c2ccccc2n2n1Cc1ccccc1C2 was run?
A: 57.9 µM (inactive)

Q: And the GI50 (HCT-15)?
A: > 100 µM

Q: And the GI50 (MDA-MB-435)?
A: > 100 µM (inactive)

Q: And the GI50 (MDA-MB-231)?
A: > 100 µM (inactive)

Q: And the GI50 (786-0)?
A: > 100 µM (inactive)

Q: What about the GI50 (T47D) of the same molecule?
A: > 100 µM (inactive)

Q: What about the GI50 (U-251) of the same molecule?
A: > 100 µM (inactive)

Q: And the GI50 (SF-295)?
A: > 100 µM (inactive)

Q: And the GI50 (SNB-75)?
A: 58.3 µM (inactive)

Q: What about the GI50 (CCRF-CEM) of the same molecule?
A: > 100 µM (inactive)

Q: What about the GI50 (DU-145) of the same molecule?
A: > 100 µM (inactive)

Q: What about the GI50 (HT-29) of the same molecule?
A: > 100 µM (inactive)

Q: And the GI50 (COLO 205)?
A: > 100 µM (inactive)

Q: And the GI50 (A498)?
A: > 100 µM (inactive)

Q: And the GI50 (Malme-3M)?
A: > 100 µM (inactive)

Q: What about the GI50 (SNB-19) of the same molecule?
A: > 100 µM (inactive)

Q: What about the GI50 (SF-539) of the same molecule?
A: > 100 µM (inactive)

Q: What about the GI50 (UACC-62) of the same molecule?
A: > 100 µM (inactive)

Q: What about the GI50 (NCI-H226) of the same molecule?
A: > 100 µM (inactive)

Q: How did the GI50 (Hs-578T) turn out when O=C(O)c1cccc(C(=O)O)c1[S+]([O-])Cc1ccccc1 (configuration not stated) was run?
A: > 100 µM (inactive)

Q: What about the GI50 (HCT-15) of the same molecule?
A: > 100 µM

Q: And the GI50 (MDA-MB-435)?
A: > 100 µM (inactive)

Q: And the GI50 (MDA-MB-231)?
A: > 100 µM (inactive)

Q: And the GI50 (786-0)?
A: > 100 µM (inactive)

Q: What about the GI50 (T47D) of the same molecule?
A: > 100 µM (inactive)

Q: What about the GI50 (U-251) of the same molecule?
A: > 100 µM (inactive)

Q: What about the GI50 (SF-295) of the same molecule?
A: > 100 µM (inactive)

Q: What about the GI50 (SNB-75) of the same molecule?
A: > 100 µM (inactive)

Q: And the GI50 (DU-145)?
A: > 100 µM (inactive)

Q: What about the GI50 (HT-29) of the same molecule?
A: > 100 µM (inactive)

Q: And the GI50 (COLO 205)?
A: > 100 µM (inactive)

Q: What about the GI50 (A498) of the same molecule?
A: > 100 µM (inactive)

Q: What about the GI50 (Malme-3M) of the same molecule?
A: > 100 µM (inactive)

Q: And the GI50 (SNB-19)?
A: > 100 µM (inactive)

Q: What about the GI50 (SF-539) of the same molecule?
A: > 100 µM (inactive)

Q: And the GI50 (UACC-62)?
A: > 100 µM (inactive)

Q: What about the GI50 (NCI-H226) of the same molecule?
A: > 100 µM (inactive)

Q: What about the GI50 (OVCAR-5) of the same molecule?
A: > 100 µM (inactive)

Q: Which results are given for CC1=C(C(=O)NC2CCCCC2)CC(C(=O)NC2CCCCC2)=C(C)N1?
A: GI50 (Hs-578T): 24.9 µM (inactive); GI50 (HCT-15): > 100 µM; GI50 (MDA-MB-435): > 100 µM (inactive); GI50 (MDA-MB-231): > 100 µM (inactive); GI50 (786-0): > 100 µM (inactive); GI50 (T47D): 58.6 µM (inactive); GI50 (U-251): > 100 µM (inactive); GI50 (SF-295): > 100 µM (inactive); GI50 (SNB-75): 13.7 µM (inactive); GI50 (CCRF-CEM): > 100 µM (inactive); GI50 (DU-145): > 100 µM (inactive); GI50 (COLO 205): > 100 µM (inactive); GI50 (A498): 65.9 µM (inactive); GI50 (Malme-3M): > 100 µM (inactive); GI50 (SNB-19): > 100 µM (inactive); GI50 (SF-539): > 100 µM (inactive); GI50 (UACC-62): > 100 µM (inactive); GI50 (OVCAR-5): > 100 µM (inactive)

Q: With CN1N=C(c2ccncc2)OC1c1ccc(Cl)cc1Cl (configuration not stated) as the molecule, how does the GI50 (Hs-578T) read?
A: > 100 µM (inactive)

Q: What about the GI50 (HCT-15) of the same molecule?
A: > 100 µM

Q: What about the GI50 (MDA-MB-435) of the same molecule?
A: 63.7 µM (inactive)

Q: And the GI50 (MDA-MB-231)?
A: 87.9 µM (inactive)

Q: What about the GI50 (786-0) of the same molecule?
A: 97.7 µM (inactive)

Q: What about the GI50 (T47D) of the same molecule?
A: 60.3 µM (inactive)

Q: And the GI50 (U-251)?
A: > 100 µM (inactive)

Q: And the GI50 (SF-295)?
A: 66.2 µM (inactive)

Q: And the GI50 (SNB-75)?
A: 12.6 µM (inactive)

Q: What about the GI50 (CCRF-CEM) of the same molecule?
A: 48.6 µM (inactive)

Q: What about the GI50 (DU-145) of the same molecule?
A: > 100 µM (inactive)

Q: And the GI50 (HT-29)?
A: 59.2 µM (inactive)

Q: What about the GI50 (COLO 205) of the same molecule?
A: 36.1 µM (inactive)

Q: And the GI50 (A498)?
A: 49.9 µM (inactive)

Q: And the GI50 (SNB-19)?
A: > 100 µM (inactive)

Q: And the GI50 (SF-539)?
A: 44.5 µM (inactive)

Q: What about the GI50 (UACC-62) of the same molecule?
A: 22.8 µM (inactive)

Q: What about the GI50 (NCI-H226) of the same molecule?
A: 29.2 µM (inactive)

Q: And the GI50 (OVCAR-5)?
A: > 100 µM (inactive)

Q: For ON(CCc1ccccn1)Cc1ccccc1, which GI50 (Hs-578T) is on record?
A: > 100 µM (inactive)

Q: And the GI50 (HCT-15)?
A: > 100 µM

Q: And the GI50 (MDA-MB-435)?
A: > 100 µM (inactive)

Q: What about the GI50 (MDA-MB-231) of the same molecule?
A: > 100 µM (inactive)

Q: What about the GI50 (786-0) of the same molecule?
A: > 100 µM (inactive)

Q: What about the GI50 (T47D) of the same molecule?
A: > 100 µM (inactive)

Q: And the GI50 (U-251)?
A: > 100 µM (inactive)

Q: What about the GI50 (SF-295) of the same molecule?
A: > 100 µM (inactive)

Q: What about the GI50 (SNB-75) of the same molecule?
A: > 100 µM (inactive)

Q: What about the GI50 (DU-145) of the same molecule?
A: > 100 µM (inactive)

Q: What about the GI50 (HT-29) of the same molecule?
A: > 100 µM (inactive)

Q: What about the GI50 (COLO 205) of the same molecule?
A: > 100 µM (inactive)

Q: What about the GI50 (A498) of the same molecule?
A: > 100 µM (inactive)

Q: And the GI50 (Malme-3M)?
A: > 100 µM (inactive)

Q: And the GI50 (SNB-19)?
A: > 100 µM (inactive)

Q: What about the GI50 (SF-539) of the same molecule?
A: > 100 µM (inactive)

Q: And the GI50 (UACC-62)?
A: > 100 µM (inactive)

Q: And the GI50 (NCI-H226)?
A: > 100 µM (inactive)

Q: And the GI50 (OVCAR-5)?
A: > 100 µM (inactive)

Source: ChEMBL document CHEMBL1201862, “PubChem BioAssay data set” (2004)
